Data on two molecules can be found in US4806361A, “Medicaments in sustained release unit dose form” (Sterling Drug Inc., priority 1984, dated 1989).

For data set [1] the following is noted: pH 6.0-7.0; cited from earlier work.
A short description of data set [2]: Urinary recovery of active ingredient over 0-24 hours (HPLC). Further details: species or system human. Particulars: in vivo. The method, then: After measuring volume and pH, aliquots were stored below -15° C. pending assay for the active ingredient by a validated HPLC procedure.
The resulting linear regression was used to determine urine concentrations of the active ingredient in each sample. Recovered amounts of the active ingredient were then calculated from the urine volume for the collection period of each sample.

For the molecule `OCCN(CCO)c1nc(N2CCCCC2)c2nc(N(CCO)CCO)nc(N3CCCCC3)c2n1` [dipyridamole], in data set [1], the “Solubility” value was “insoluble”.
`Cc1[nH]c(=O)c(C#N)cc1-c1ccncc1` [1,2-dihydro-3-cyano-6-methyl-5-(4-pyridinyl)-2(1H)-pyridinone]: in data set [2], the “Excretion” value is “excreted in the urine” and the “Metabolism” value is listed as “only slightly metabolized”.
